Results from patent US20240254129A1, “HETEROCYCLIC COMPOUNDS AND USES THEREOF” (Kumquat Biosciences Inc., priority 2021, published 2024).
pIC50: −log10 of the molar value.

How the values were obtained:
[1] = target: GST-tagged K-Ras mutant / His-tagged hSOS1 (Homo sapiens, UniProt P01116); experiment: HTRF assay, K-Ras mutant / SOS1 interaction; format: binding; details: compound nos. 102-196, general methodology of example 5; read-out: IC50 against mutant Kras
Excerpt: (§1) This assay can be also used to assess a selective inhibition of a mutant Ras protein relative to a wildtype, or relative to a different mutant Ras protein. For example, the equilibrium interaction of wildtype Kras or K-Ras mutant (e.g., wildtype or a mutant thereof including those mentioned in Example 6) with SOS1 (e.g., hSOS1) can be assessed as a proxy or an indication for a subject compound's ability to bind and inhibit Ras protein. HTRF assay detects from (i) a fluorescence resonance energy transfer (FRET) donor (e.g., antiGST-Europium) that is bound to GST-tagged K-Ras mutant to (ii) a FRET acceptor (e.g., anti-6His-XL665) bound to a His-tagged hSOS1.
(§2) The assay buffer can contain ˜5 mM HEPES pH 7.4, ˜150 mM NaCl, ˜ 1 mM DTT, 0.05% BSA and 0.0025% (v/v) Igepal. A Ras working solution is prepared in an assay buffer containing typically a suitable amount of the protein construct (e.g., GST-tagged K-Ras mutant) and the FRET donor (e.g., antiGST-Eu(K) from Cisbio, France). A SOS1 working solution is prepared in an assay buffer containing suitable amount of the protein construct (e.g., His-hSOS1) and the FRET acceptor (e.g., anti-6His-XL665 from Cisbio, France). A suitable amount of the protein construct will depend on the range of activity or range of IC50 values being detected or under investigation. For detecting IC50 within a range of 500 nM, the protein constructs of the same range of molarity can be utilized.
(§3) A fixed volume of DMSO with or without test compound is transferred into a 384-well plate. Ras working solution is added to all wells of the test plate. SOS1 working solution is added to all wells except for those that are subsequently filled the inhibitor control solution. Upon incubation for about 10 minutes or longer, the fluorescence is measured with a M1000Pro plate reader (Tecan) using HTRF detection (excitation 337 nm, emission 1: 620 nm, emission 2: 665 nm). Compounds are tested in duplicates at different concentrations (for example, 10 μM, 2.5 μM, 0.63 μM, 0.16 μM, 0.04 µM, 0.01 μM test compound). The ratiometric data (i.e., emission 2 divided by emission 1) is used to calculate IC50 values against Ras using GraphPad Prism (GraphPad software). Following this general procedure, samples were tested with or without a subject compound disclosed herein including compounds exemplified in Table 1 to assess their abilities to inhibit K-Ras signaling or their respective IC50 values against a given Ras protein (e.g., a given mutant K-Ras) of interest.

wildtype Kras / hSOS1 = target: T1, wildtype Kras / hSOS1 (Homo sapiens, UniProt P01116); experiment: HTRF assay, wildtype Kras / SOS1 interaction; format: binding; details: compound nos. 102-196, general methodology of example 5; read-out: IC50 against wildtype Kras
T1 construct: made in house; host or cells: E. coli BL21 (DE3)
Excerpt: as §1, §2, §3

GST-tagged K-Ras mutant / His-tagged hSOS1, sequence (P01116 whole entry G12D, form open): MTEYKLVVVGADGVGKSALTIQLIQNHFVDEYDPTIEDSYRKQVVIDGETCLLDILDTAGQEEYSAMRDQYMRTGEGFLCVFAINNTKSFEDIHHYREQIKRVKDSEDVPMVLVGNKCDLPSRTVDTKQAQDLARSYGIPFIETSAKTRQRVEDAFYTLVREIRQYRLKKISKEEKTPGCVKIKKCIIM
T1 sequence (P01116 1-188 isoform P01116-2): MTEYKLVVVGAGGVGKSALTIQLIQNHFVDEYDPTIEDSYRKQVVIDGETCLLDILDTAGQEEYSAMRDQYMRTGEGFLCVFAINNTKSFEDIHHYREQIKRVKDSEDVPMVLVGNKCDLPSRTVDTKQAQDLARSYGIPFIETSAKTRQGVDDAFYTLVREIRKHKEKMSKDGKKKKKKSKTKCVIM

| pIC50 [1] | pIC50 (wildtype Kras / hSOS1) | Compound |
| --- | --- | --- |
| > 6.30 | > 6.30 | CN1CCC[C@H]1COc1nc(N2CCSCC(F)(F)C2)c2cc(Cl)c(-c3cccc4sc(N)nc34)c(F)c2n1 [Compound 136, 4-(6-chloro-4-(6,6-difluoro-1,4-thiazepan-4-yl)-8-fluoro-2-(((S)-1-methylpyrrolidin-2-yl)methoxy)quinazolin-7-yl)benzo[d]thiazol-2-amine] |
| < 6.30 | < 6.30 | CN1CCC[C@H]1COc1nc(N2CC3CNC(C3)C2)c2cc(Cl)c(-c3cccc4sc(N)nc34)c(F)c2n1 (stereo partly drawn) [Compound 137, 4-(4-(3,6-diazabicyclo-[3.2.1]octan-3-yl)-6-chloro-8-fluoro-2-(((S)-1-methyl-pyrrolidin-2-yl)methoxy)-quinazolin-7-yl)benzo[d]-thiazol-2-amine] |
| < 6.30 | < 6.30 | Cc1nc2c(-c3c(Cl)cc4c(N5CCNCC(F)(F)C5)nc(OC[C@@H]5CCCN5C)nc4c3F)cccc2s1 [Compound 138, 4-(6-chloro-4-(6,6-difluoro-1,4-diazepan-1-yl)-8-fluoro-2-(((S)-1-methylpyrrolidin-2-yl)methoxy)quinazolin-7-yl)-2-methylbenzo[d]thiazole] |
| < 6.30 | < 6.30 | Nc1nc2c(-c3c(Cl)cc4c(N5CCNCC(F)(F)C5)nc(OCc5ccccn5)nc4c3F)cccc2s1 [Compound 139, 4-(6-chloro-4-(6,6-difluoro-1,4-diazepan-1-yl)-8-fluoro-2-(pyridin-2-ylmethoxy)-quinazolin-7-yl)benzo[d]-thiazol-2-amine] |
| < 6.30 | > 6.30 | CN1CCC[C@H]1COc1nc(N2CCN(S(C)(=O)=O)CC(F)(F)C2)c2cc(Cl)c(-c3cccc4sc(N)nc34)c(F)c2n1 [Compound 140, 4-(6-chloro-4-(6,6-difluoro-4-(methylsulfonyl)-1,4-diazepan-1-yl)-8-fluoro-2-(((S)-1-methylpyrrolidin-2-yl)methoxy)quinazolin-7-yl)-benzo[d]thiazol-2-amine] |
| < 6.30 | > 6.30 | CN1CCC[C@H]1COc1nc(N2CCN(C(=O)CN)CC(F)(F)C2)c2cc(Cl)c(-c3cccc4sc(N)nc34)c(F)c2n1 [Compound 141, 2-amino-1-(4-(7-(2-amino-benzo[d]thiazol-4-yl)-6-chloro-8-fluoro-2-(((S)-1-methylpyrrolidin-2-yl)meth-oxy)quinazolin-4-yl)-6,6-difluoro-1,4-diazepan-1-yl)-ethan-1-one] |
| > 6.30 | > 6.30 | CN1CCC[C@H]1COc1nc(N2CCNC(=O)CC2)c2cc(Cl)c(-c3cccc4sc(N)nc34)c(F)c2n1 [Compound 142, 1-(7-(2-aminobenzo[d]-thiazol-4-yl)-6-chloro-8-fluoro-2-(((S)-1-methyl-pyrrolidin-2-yl)methoxy)-quinazolin-4-yl)-1,4-diazepan-5-one] |
| < 6.30 | < 6.30 | CN1CCC[C@H]1COc1nc(N2CCC3CNCC3C2)c2cc(Cl)c(-c3cccc4sc(N)nc34)c(F)c2n1 (stereo partly drawn) [Compound 143, 4-(6-chloro-8-fluoro-2-(((S)-1-methylpyrrolidin-2-yl)-methoxy)-4-(octahydro-5H-pyrrolo[3,4-c]pyridin-5-yl)-quinazolin-7-yl)benzo[d]-thiazol-2-amine] |
| < 6.30 | < 6.30 | CN1CCC[C@H]1COc1nc(N2CC3CNCC3C2)c2cc(Cl)c(-c3cccc4sc(N)nc34)c(F)c2n1 (stereo partly drawn) [Compound 144, 4-(6-chloro-8-fluoro-4-(hexahydropyrrolo[3,4-c]-pyrrol-2(1H)-yl)-2-(((S)-1-methylpyrrolidin-2-yl)meth-oxy)quinazolin-7-yl)benzo-[d]thiazol-2-amine] |
| < 6.30 | < 6.30 | Nc1nc2c(-c3c(Cl)cc4c(N5CCNCC(F)(F)C5)nc(Oc5cccnc5C5CC5)nc4c3F)cccc2s1 [Compound 145, 4-(6-chloro-2-((2-cycloprop-ylpyridin-3-yl)oxy)-4-(6,6-difluoro-1,4-diazepan-1-yl)-8-fluoroquinazolin-7-yl)-benzo[d]thiazol-2-amine] |
| > 6.30 | > 6.30 | CN1C[C@H](F)C[C@H]1COc1nc(N2CCNCC(F)(F)C2)c2cc(Cl)c(-c3cccc4sc(N)nc34)c(F)c2n1 [Compound 146, 4-(6-chloro-4-(6,6-difluoro-1,4-diazepan-1-yl)-8-fluoro-2-(((2S,4R)-4-fluoro-1-methylpyrrolidin-2-yl)meth-oxy)quinazolin-7-yl)benzo-[d]thiazol-2-amine] |
| > 6.30 | > 6.30 | CN1CCC[C@H]1COc1nc(N2CCCOCC2)c2cc(Cl)c(-c3ccc(F)c4sc(N)nc34)c(F)c2n1 [Compound 147, 4-(6-chloro-8-fluoro-2-(((S)-1-methylpyrrolidin-2-yl)-methoxy)-4-(1,4-oxazepan-4-yl)quinazolin-7-yl)-7-fluorobenzo[d]thiazol-2-amine] |
| > 6.30 | > 6.30 | Nc1nc2c(-c3c(Cl)cc4c(N5CCCOCC5)nc(OCC56CCCN5CCC6)nc4c3F)ccc(F)c2s1 [Compound 148, 4-(6-chloro-8-fluoro-4-(1,4-oxazepan-4-yl)-2-((tetra-hydro-1H-pyrrolizin-7a(5H)-yl)methoxy)quinazolin-7-yl)-7-fluorobenzo[d]thiazol-2-amine] |
| < 6.30 | < 6.30 | CN1CCC[C@H]1COc1nc(N2CCNCC(F)(F)C2)c2cc(Cl)c(-c3cccc4sc(NCC(F)(F)F)nc34)c(F)c2n1 [Compound 149, 4-(6-chloro-4-(6,6-difluoro-1,4-diazepan-1-yl)-8-fluoro-2-(((S)-1-methylpyrrolidin-2-yl)methoxy)quinazolin-7-yl)-N-(2,2,2-trifluoroethyl)-benzo[d]thiazol-2-amine] |
| < 6.30 | > 6.30 | CN1CCC[C@H]1COc1nc(N2CCN(S(N)(=O)=O)CC(F)(F)C2)c2cc(Cl)c(-c3cccc4sc(N)nc34)c(F)c2n1 [Compound 150, 4-(7-(2-aminobenzo[d]-thiazol-4-yl)-6-chloro-8-fluoro-2-(((S)-1-methyl-pyrrolidin-2-yl)methoxy)-quinazolin-4-yl)-6,6-difluoro-1,4-diazepane-1-sulfonamide] |
| < 6.30 | < 6.30 | Nc1nc2c(-c3c(Cl)cc4c(N5CCNCC(F)(F)C5)nc(OCC56CCCN5C(=O)CC6)nc4c3F)cccc2s1 (stereo not shown) [Compound 151, 7a-(((7-(2-aminobenzo[d]-thiazol-4-yl)-6-chloro-4-(6,6-difluoro-1,4-diazepan-1-yl)-8-fluoroquinazolin-2-yl)oxy)methyl)hexahydro-3H-pyrrolizin-3-one] |
| < 6.30 | < 6.30 | CN1CCc2c(cccc2Oc2nc(N3CCNCC(F)(F)C3)c3cc(Cl)c(-c4cccc5sc(N)nc45)c(F)c3n2)C1 [Compound 153, 4-(6-chloro-4-(6,6-difluoro-1,4-diazepan-1-yl)-8-fluoro-2-((2-methyl-1,2,3,4-tetra-hydroisoquinolin-5-yl)oxy)-quinazolin-7-yl)benzo[d]-thiazol-2-amine] |
| > 6.30 | > 6.30 | Nc1nc2c(-c3c(Cl)cc4c(N5CCCOCC5)nc(OC[C@@]56CCCN5C[C@H](F)C6)nc4c3F)ccc(F)c2s1 [Compound 154, 4-(6-chloro-8-fluoro-2-(((2R,7aS)-2-fluorotetra-hydro-1H-pyrrolizin-7a(5H)-yl)methoxy)-4-(1,4-oxazepan-4-yl)quin-azolin-7-yl)-7-fluoro-benzo[d]-thiazol-2-amine] |
| < 6.30 | < 6.30 | CN1CCC[C@H]1COc1nc(N2CCNCC(F)(F)C2)c2cc(Cl)c(-c3cccc4sc(N)nc34)c(OCc3ccccn3)c2n1 [Compound 155, 4-(6-chloro-4-(6,6-difluoro-1,4-diazepan-1-yl)-2-(((S)-1-methylpyrrolidin-2-yl)-methoxy)-8-(pyridin-2-yl-methoxy)quinazolin-7-yl)-benzo[d]thiazol-2-amine] |
| > 6.30 | > 6.30 | Nc1nc2c(-c3c(Cl)cc4c(N5CCOCC(O)C5)nc(OCC56CCCN5CCC6)nc4c3F)cccc2s1 (stereo not shown) [Compound 156, 4-(7-(2-aminobenzo[d]-thiazol-4-yl)-6-chloro-8-fluoro-2-((tetrahydro-1H-pyrrolizin-7a(5H)-yl)-methoxy)quinazolin-4-yl)-1,4-oxazepan-6-ol] |
